Like-named read-outs stand apart in the source and are kept apart here. Marks after values point to notes of the source that are not given here.
Key:
Assay type in all cases: biochemical, M. tuberculosis
MshC [1] = biological target: T1, MshC (Mycobacterium tuberculosis, UniProt P9WJM9); experiment: Inhibition studies of MshC ligase activity (HEPES pH 7.5, HPLC); details: for inhibition of the ligase activity, in words: 80-1600 μM, 70 μM L-Cys and 50 μM GlcN-Ins; for % inhibition: [inhibitor] 1600 μM, 50 μM GlcN-Ins and 70 μM Cys
T1 sequence (P9WJM9 1-414): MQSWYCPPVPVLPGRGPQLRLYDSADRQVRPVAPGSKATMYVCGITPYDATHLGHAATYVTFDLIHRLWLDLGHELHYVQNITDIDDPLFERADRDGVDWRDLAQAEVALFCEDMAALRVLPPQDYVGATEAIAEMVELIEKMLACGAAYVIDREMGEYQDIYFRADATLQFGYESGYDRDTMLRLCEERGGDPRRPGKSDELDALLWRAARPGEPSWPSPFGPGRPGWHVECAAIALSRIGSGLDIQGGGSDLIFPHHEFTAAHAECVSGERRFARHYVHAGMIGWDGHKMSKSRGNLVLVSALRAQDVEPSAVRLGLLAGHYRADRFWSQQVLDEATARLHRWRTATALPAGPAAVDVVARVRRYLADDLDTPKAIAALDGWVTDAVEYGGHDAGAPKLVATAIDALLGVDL

MshC [2] = biological target: T1, MshC; details: for activity as alternative substrate to Cys, in words: 80 μM to 1.6 mM
MshC [3] = biological target: T1, MshC; experiment: biochemical; details: for IC50: IC50, μM; for inhibition of MshC in words, compounds grouped by X: X=S, X=SO, X=SO2

SMILES: CC(=O)N[C@@H](CS)C(=O)O [AcCys, N-acetylcysteine]
- inhibition of the ligase activity, in words (MshC [1]): minor inhibition
- % inhibition (MshC [1]): 20 ± 6%
- relative spec. act. (MshC [2]): ≦0.24
- activity as alternative substrate to Cys, in words (MshC [2]): Nor was significant activity detected

SMILES: N[C@@H](CS)C(=O)O [Cys, L-cysteine]
- apparent Vmax (MshC [2]): 1450 ± 200 nmol/min/mg
- Specific activity (MshC [2]; Cys 70 μM, 50 μM GlcN-Ins, 37° C.): ^cSpecific activity 108 nmol min^−1 mg^−1.
- relative spec. act. (MshC [2]; Cys 70 μM, reference): (100)^c
- Km (MshC [2]; as stated in the feedback inhibition paragraph, read-out: apparent Km value for Cys): 70 ± 15 µM
- Km (MshC [2]; pH 7.5, read-out: apparent Km for L-Cys): 85 ± 20 µM

SMILES: N[C@@H](CS)C(=O)N[C@H]1[C@@H](OC2[C@H](O)[C@H](O)C(O)[C@H](O)[C@H]2O)O[C@H](CO)[C@@H](O)[C@@H]1O (stereo partly shown) [Cys-GlcN-Ins, cysteinyl glucosaminyl inositol]
- inhibition (feedback) (MshC [1]): < 1.0%

SMILES: N[C@H](CS)C(=O)O [D-Cys]
- inhibition of the ligase activity, in words (MshC [1]): very minor inhibition
- % inhibition (MshC [1]): 15 ± 8%
- relative spec. act. (MshC [2]): ≦0.7
- activity as alternative substrate to Cys, in words (MshC [2]): poor substrate

SMILES: N[C@H]1C(O)O[C@H](CO)[C@@H](O)[C@@H]1O (stereo partly drawn) [D-GlcN]
- activity relative to GlcN-Ins (MshC [2]): ~1%
- relative spec. act. (MshC [2]): 1.2

SMILES: N[C@H]1[C@@H](O[C@@H]2[C@H](O)[C@H](O)[C@@H](O)[C@H](O)[C@H]2O)O[C@H](CO)[C@@H](O)[C@@H]1O [GlcN-Ins, 1-O-(2-amino-2-deoxy-α-D-glucopyranosyl)-D-myo-inositol]
- apparent Vmax (MshC [2]; GlcN-Ins varied, 1 mM ATP and 0.5 mM Cys): 1160 ± 120 nmol/min/mg
- Km (MshC [2]; pH 7.5, read-out: apparent Km for GlcN-Ins): 280 ± 43 µM

SMILES: CCC1CCCCN1CCCNC(=O)c1ccc2c(c1)N(Cc1ccccc1F)C(=O)c1ccccc1[S+]2[O-] (stereo not shown) [Inhibitor 1137]
- inhibition of MshC in words, 1,3-diaminopropyl residue with remote amino residue capable of protonation (MshC [3]): measurable inhibition
- inhibition of MshC in words, Z is a benzyl moiety bearing one or more halogens (MshC [3]): Measurable inhibition
- IC50 (MshC [3]): 1400 ± 700 µM
- inhibition of MshC in words, compounds grouped by X (MshC [3]): Significant inhibition

SMILES: CC1CC(C)CN(CCCNC(=O)c2ccc3c(c2)N(Cc2ccccc2F)C(=O)c2ccccc2S3(=O)=O)C1 (stereo not shown) [Inhibitor 1138]
- IC50 (MshC [3]): > 3000 µM

SMILES: Cc1ccc(C)c(CN2C(=O)c3ccccc3S(=O)(=O)c3ccc(C(=O)NCCN4CCCCC4)cc32)c1 [Inhibitor 1173]
- IC50 (MshC [3]): > 2000 µM

SMILES: Cc1ccc(CN2C(=O)c3ccccc3Sc3ccc(C(=O)NCC(C)CN4CCC(C)CC4)cc32)cc1 (stereo not shown) [Inhibitor 1671]
- IC50 (MshC [3]): > 3000 µM

SMILES: Cc1ccc(CN2C(=O)c3ccccc3Sc3ccc(C(=O)NCCCN4CC(C)CC(C)C4)cc32)cc1 (stereo not shown) [Inhibitor 1672]
- IC50 (MshC [3]): > 3000 µM

SMILES: CCN1C(=O)c2ccccc2Sc2ccc(C(=O)NCCCN(CC(C)C)CC(C)C)cc21 [Inhibitor 1751]
- IC50 (MshC [3]): > 3000 µM

SMILES: CCN1C(=O)c2ccccc2Sc2ccc(C(=O)NCCCN3CCCCC3)cc21 [Inhibitor 1754]
- IC50 (MshC [3]): ~2000 µM
- inhibition of MshC in words, compounds grouped by X (MshC [3]): Significant inhibition

SMILES: O=C(NCCCN1CCCCC1)c1ccc2c(c1)N(Cc1cccc(Cl)c1)C(=O)c1ccccc1S2 [Inhibitor 1776]
- inhibition of MshC in words, 1,3-diaminopropyl residue with remote amino residue capable of protonation (MshC [3]): measurable inhibition
- inhibition of MshC in words, Z is a benzyl moiety bearing one or more halogens (MshC [3]): Measurable inhibition
- IC50 (MshC [3]): 320 ± 50 µM
- inhibition of MshC in words, compounds grouped by X (MshC [3]): Significant inhibition

SMILES: O=C(NCCCN1CCCC1)c1ccc2c(c1)N(Cc1cccc(Cl)c1)C(=O)c1ccccc1S2 [Inhibitor 1779]
- inhibition of MshC in words, 1,3-diaminopropyl residue with remote amino residue capable of protonation (MshC [3]): measurable inhibition
- inhibition of MshC in words, Z is a benzyl moiety bearing one or more halogens (MshC [3]): Measurable inhibition
- IC50 (MshC [3]): 135 ± 30 µM
- inhibition of MshC in words, compounds grouped by X (MshC [3]): Significant inhibition

SMILES: O=C(NCc1cccs1)c1ccc2c(c1)N(Cc1cccc(Cl)c1)C(=O)c1ccccc1S2 [Inhibitor 1781]
- IC50 (MshC [3]): > 3000 µM

SMILES: CCC1CCCCN1CCNC(=O)c1ccc2c(c1)N(Cc1ccc(F)cc1Cl)C(=O)c1ccccc1S2 (stereo not shown) [Inhibitor 1806]
- inhibition of MshC in words, Z is a benzyl moiety bearing one or more halogens (MshC [3]): Measurable inhibition
- IC50 (MshC [3]): ~750 µM
- inhibition of MshC in words, compounds grouped by X (MshC [3]): Significant inhibition

SMILES: CN(CCCNC(=O)c1ccc2c(c1)N(Cc1ccccc1Cl)C(=O)c1ccccc1S2)c1ccccc1 [Inhibitor 1920]
- inhibition of MshC in words, compounds lacking the basic amino group or with groups in excess of 10 carbons on the remote amino residue (MshC [3]): little or no inhibition
- IC50 (MshC [3]): > 3000 µM
